Holding throughout (type): cell-based
One experiment has as its system HRV14. Put plainly: HRV14 HELA EC50 (cytopathic effect in H1-HeLa cells). As to conditions: 96 h, read-out: HRV14 HELA EC50. As to the method: (§1) H1-HeLa cells, cultured in complete RPMI 1640 medium containing 10% heat-inactivated FBS and 1% Penicillin/Streptomycin, were seeded in 96 well plates at 5000 cells/well one day prior to compound dosing and infection. The antiviral activity of each compound was measured in triplicate. Compounds were added directly to the cell cultures in serial 3-fold dilutions using the HP300 digital dispenser (Hewlett Packard, Palo Alto, CA) immediately prior to infection. The plates were transferred to BSL-2 containment and 100 μL of 1/4000 dilution of HRV14 virus stock was added to each well containing cells and serially diluted compounds. Each plate included 6 wells of infected untreated cells and 6 wells of cells containing 5 μM Rupintrivir that served as 0% and 100% virus inhibition control, respectively. Following the infection, test plates were incubated for 96 h in a tissue culture incubator set to 37° C./5% CO2. Following incubation, the H1-HeLa cells were removed from incubation and allowed to equilibrate to 25° C. Cell viability was determined by removing 100 μL of culture medium and adding 100 μL of Cell-Titer Glo viability reagent. The mixtures were incubated on a shaker for 10 minutes at 25° C., and the luminescence signal was quantified on an Envision luminescence plate reader.

The test system of another experiment is HRV1a. Put plainly: HRV1A HELA EC50 (cytopathic effect in H1-HeLa cells). As to conditions: 96 h, read-out: HRV1A HELA EC50. As to the method: as §1, with “HRV1a” for “HRV14”
On the technique in general: Cytopathic effects are the visible damage that an infection or toxin causes in cultured cells.

Another experiment deals with HRV10. Put plainly: HRV10 HELA EC50.
The test system of a further experiment is HRV99. In words: HRV99 EC50.
The next experiment concerns HRVc25 replicon. In words: HRVc25 EC50 (replicon luciferase in H1-HeLa cells). As to conditions: 48 hrs. As to the method:
(§2) First, HRV replicon RNA is prepared. 5 ug of DNA Template (HRVc15 or HRVc25) is linearized with 2 μL of MluI enzyme in NEB buffer-3 in a final volume of 25 μL for 3 hours at 37° C. Following incubation, linearized DNA is purified on a PCR purification column and the following in vitro transcription is performed using the following conditions: 10 μL of RiboMAX Express T7 2× buffer, 1-8 μL of linear DNA template (1 μg), 0-7 μL nuclease free water, 2 μL enzyme mix T7 express. The final volume of 20 μL is mixed and incubated at 37° C. for 30 min. Following incubation, 1 μL of RQ1 RNase free DNase is added and the mixture is incubated at 37° C. for 15 min. The resulting RNA is then purified with the MegaClear Kit (Gibco Life Technologies cat #11835-030) and is eluted two times with 50 μL of elution buffer at 95° C. […] Replicon activity is then measured by a Renilla-Glo Luciferase Assay system. Prior to signal quantification, plates are removed from incubators and are allowed to equilibrate to 25° C. after 50 uL is removed from each well. […] Plates are then incubated for 20 min at 25° C. under gentle agitation and luciferase signal are determined with a 0.1 second detection setting using an EnVision luciferase quantification reader.
On the technique in general: Replicon systems follow genome replication, usually without infectious particles.

Another experiment deals with HRVc15 replicon. Put plainly: HRVc15 EC50 (replicon luciferase in H1-HeLa cells). As to conditions: 48 hrs. As to the method:
as §2

Read-outs that look alike come from different tables or passages of the source.

A word on the EC50: it is the concentration at which the effect is half-maximal. `C[C@H](NP(=O)(OC[C@@]1(C#N)O[C@@H](c2ccc3c(N)ncnn23)[C@H](O)[C@@H]1O)Oc1ccccc1)C(=O)OC1CCCCC1` (stereo partly drawn) [Example 4, (2S)-cyclohexyl 2-(((((2R,3S,4R,5S)-5-(4-aminopyrrolo[2,1-f][1,2,4]triazin-7-yl)-2-cyano-3,4-dihydroxytetrahydrofuran-2-yl)methoxy)(phenoxy)phosphoryl)amino)propanoate]: the EC50 in the experiment with HRV14 came out at 445 nM; in the experiment on HRV1a it was 190 nM; in the experiment on HRV10, 144 nM; in the experiment with HRV99, 1090 nM.
With `CCC(CC)COC(=O)[C@H](CC)NP(=O)(OC[C@@]1(C#N)O[C@@H](c2ccc3c(N)ncnn23)[C@H](O)[C@@H]1O)Oc1ccccc1` (mixture of isomers) [Example 88, (2S)-2-ethylbutyl 2-(((((2R,3S,4R,5S)-5-(4-aminopyrrolo[2,1-f][1,2,4]triazin-7-yl)-2-cyano-3,4-dihydroxytetrahydrofuran-2-yl)methoxy)(phenoxy)phosphoryl)amino)butanoate], the EC50 with HRV14 is 1690 nM; with HRV1a, 581 nM; with HRV10 it was 608 nM; in the experiment with HRV99 it was 4540 nM.
`C[C@H](NP(=O)(OC[C@@]1(C#N)O[C@@H](c2ccc3c(N)ncnn23)[C@H](O)[C@@H]1O)Oc1ccccc1)C(=O)OCC(C)(C)C` (stereo partly drawn) [Example 92, (2S)-neopentyl 2-(((((2R,3S,4R,5S)-5-(4-aminopyrrolo[2,1-f][1,2,4]triazin-7-yl)-2-cyano-3,4-dihydroxytetrahydrofuran-2-yl)methoxy)(phenoxy)phosphoryl)amino)propanoate]: the EC50 with HRV14 is 242 nM; in the experiment with HRV1a, 97 nM; in the experiment on HRV10, 81 nM; in the experiment on HRV99, 639 nM.
For `CCC(CC)OC(=O)[C@H](C)NP(=O)(OC[C@@]1(C#N)O[C@@H](c2ccc3c(N)ncnn23)[C@H](O)[C@@H]1O)Oc1ccccc1` (stereo partly drawn) [Example 101, (2S)-pentan-3-yl 2-(((((2R,3S,4R,5S)-5-(4-aminopyrrolo[2,1-f][1,2,4]triazin-7-yl)-2-cyano-3,4-dihydroxytetrahydrofuran-2-yl)methoxy)(phenoxy)phosphoryl)amino)propanoate], the EC50 in the experiment with HRV14 was 3430 nM; in the experiment on HRV1a, 1630 nM; in the experiment with HRV10, 1310 nM; in the experiment on HRV99, 7340 nM.
With `C[C@H](N[P@](=O)(OC[C@@]1(C#N)O[C@@H](c2ccc3c(N)ncnn23)[C@H](O)[C@@H]1O)Oc1ccccc1)C(=O)OC1CCCCC1` (single isomer, unassigned) [Example 6], the results for the EC50 in the experiment on HRVc25 replicon and in the experiment with HRVc15 replicon were 7 nM and 9 nM, respectively.
Take `CCC(CC)COC(=O)[C@@H](C)NP(=O)(OC[C@@]1(C#N)O[C@@H](c2ccc3c(N)ncnn23)[C@H](O)[C@@H]1O)Oc1ccccc1` (stereo partly drawn) [Example 82, (2R)-2-ethylbutyl 2-(((((2R,3S,4R,5S)-5-(4-aminopyrrolo[2,1-f][1,2,4]triazin-7-yl)-2-cyano-3,4-dihydroxytetrahydrofuran-2-yl)methoxy)(phenoxy)phosphoryl)amino)propanoate]: the EC50 with HRV14 was 9190 nM; with HRV1a, 2780 nM; in the experiment on HRV10, 2680 nM; in the experiment with HRV99, 19300 nM.
Regarding `CC(C)OC(=O)[C@H](C)NP(=O)(OC[C@@]1(C#N)O[C@@H](c2ccc3c(N)ncnn23)[C@H](O)[C@@H]1O)Oc1ccccc1` (mixture of isomers) [Example 77, Isopropyl ((((2R,3S,4R,5S)-5-(4-aminopyrrolo[2,1-f][1,2,4]triazin-7-yl)-2-cyano-3,4-dihydroxytetrahydrofuran-2-yl)methoxy)(phenoxy)phosphoryl)-L-alaninate], the EC50 in the experiment with HRV14 was 1810 nM; in the experiment with HRV1a, 736 nM; in the experiment on HRV10, 636 nM; in the experiment with HRV99 it was 4940 nM.
Turning to `C[C@H](NP(=O)(OC[C@@]1(C#N)O[C@@H](c2ccc3c(N)ncnn23)[C@H](O)[C@@H]1O)Oc1ccccc1)C(=O)OCC1CC1` (mixture of isomers) [Example 8, (2S)-cyclopropylmethyl 2-(((((2R,3S,4R,5S)-5-(4-aminopyrrolo[2,1-f][1,2,4]triazin-7-yl)-2-cyano-3,4-dihydroxytetrahydrofuran-2-yl)methoxy)(phenoxy)phosphoryl)amino)propanoate], the EC50 with HRV14 is 615 nM; in the experiment with HRV1a, 211 nM; in the experiment with HRV10 it was 179 nM; with HRV99, 1340 nM.
Turning to `CCCCCCCCCCCCCCCCCCOC[C@H](COP(=O)(O)OC[C@@]1(C#N)O[C@@H](c2ccc3c(N)ncnn23)[C@H](O)[C@@H]1O)OCc1ccccc1` [Example 96, ((2R,3S,4R,5S)-5-(4-aminopyrrolo[2,1-f][1,2,4]triazin-7-yl)-2-cyano-3,4-dihydroxytetrahydrofuran-2-yl)methyl ((R)-2-(benzyloxy)-3-(octadecyloxy)propyl) hydrogen phosphate], the EC50 was 12000 nM with HRV14 (H1-HeLa cells), 1580 nM with HRV1a (H1-HeLa cells), 2320 nM with HRV10 and 63900 nM in the experiment with HRV99.
Consider `CC[C@H](NP(=O)(OC[C@@]1(C#N)O[C@@H](c2ccc3c(N)ncnn23)[C@H](O)[C@@H]1O)Oc1ccccc1)C(=O)OC1CCCCC1` (mixture of isomers) [Example 103, (2S)-cyclohexyl 2-(((((2R,3S,4R,5S)-5-(4-aminopyrrolo[2,1-f][1,2,4]triazin-7-yl)-2-cyano-3,4-dihydroxytetrahydrofuran-2-yl)methoxy)(phenoxy)phosphoryl)amino)butanoate], for which the EC50 was 2550 nM with HRV14, 1020 nM in the experiment on HRV1a, 916 nM with HRV10 and 4740 nM with HRV99.

These data come from US20230295201A1 (Gilead Sciences, Inc., priority 2020, published 2023).
